ChEMBL document CHEMBL1201862, “PubChem BioAssay data set” (2004)
Several values for one entry are separate records, joined by “and”; a condition that tells them apart may be missing. Identical values can stand only once.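 Compound exposure: 48 hours, 5 concentrations, 96-well plates. GI50 = concentration required for 50% inhibition of growth.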 Activity calls are given as the source filed them. Cut-off read from the data, not from the text of the source: active = GI50 up to about 1.1 µM and inactive = higher.

Tests used:
Experiment in all cases: NCI anticancer screen, dose series, 48 h
UACC-62 = tested on: UACC-62
COLO 205 = tested on: COLO 205
OVCAR-4 = tested on: OVCAR-4
SNB-75 = tested on: SNB-75
SK-MEL-5 = tested on: SK-MEL-5
BT-549 = tested on: BT-549
NCI-H226 = tested on: NCI-H226
SF-295 = tested on: SF-295
DU-145 = tested on: DU-145
U-251 = tested on: U-251
UACC-257 = tested on: UACC-257
MDA-MB-435 = tested on: MDA-MB-435
OVCAR-8 = tested on: OVCAR-8
HT-29 = tested on: HT-29
CCRF-CEM = tested on: CCRF-CEM
HCT-15 = tested on: HCT-15
SNB-19 = tested on: SNB-19
LOX IMVI = tested on: LOX IMVI
SR = tested on: SR

Measured: GI50

CC1=CC(=O)/C(=C/n2c(=S)[nH]c3cc(C)ccc32)C(=O)O1
> 100 µM: HCT-15
inactive: UACC-62 > 100 µM | COLO 205 > 100 µM | OVCAR-4 73.8 µM | SNB-75 > 100 µM | SK-MEL-5 > 100 µM | BT-549 > 100 µM | NCI-H226 > 100 µM | SF-295 > 100 µM | DU-145 > 100 µM | U-251 > 100 µM | UACC-257 > 100 µM | MDA-MB-435 > 100 µM | OVCAR-8 > 100 µM | HT-29 > 100 µM | CCRF-CEM 98.9 µM | SNB-19 > 100 µM | LOX IMVI > 100 µM

CCOC(=O)c1c(-c2ccc(O)c(OC)c2)c(C#N)c(=S)n(C2OC(COC(C)=O)C(OC(C)=O)C(OC(C)=O)C2OC(C)=O)c1-c1ccccc1 (centres undefined)
98.2 µM: HCT-15
inactive: COLO 205 43.3 µM and 30.3 µM | OVCAR-4 > 100 µM | BT-549 57.7 µM and 32.6 µM | SF-295 > 100 µM | DU-145 38.5 µM and 35.2 µM | U-251 > 100 µM | UACC-257 > 100 µM and 62.2 µM | SR > 100 µM | MDA-MB-435 56.2 µM and 71 µM | HT-29 59.7 µM and 32.1 µM | CCRF-CEM 58.7 µM and 45.4 µM | SNB-19 > 100 µM | LOX IMVI 35.4 µM and 48 µM

CCOP(=O)(/C=C/n1ccc(N)nc1=O)OCC
> 100 µM: HCT-15
inactive: UACC-62 > 100 µM | COLO 205 > 100 µM | OVCAR-4 > 100 µM | SNB-75 > 100 µM | SK-MEL-5 > 100 µM | BT-549 > 100 µM | NCI-H226 97.9 µM | SF-295 > 100 µM | DU-145 > 100 µM | U-251 > 100 µM | UACC-257 > 100 µM | MDA-MB-435 > 100 µM | OVCAR-8 > 100 µM | HT-29 > 100 µM | CCRF-CEM > 100 µM | SNB-19 > 100 µM | LOX IMVI > 100 µM

CCOC(=O)C1=CNC2=N[C@H]3CCCC[C@@H]3N2C1=O
inactive: UACC-62 > 100 µM | COLO 205 > 100 µM | OVCAR-4 > 100 µM | SNB-75 > 100 µM | SK-MEL-5 > 100 µM | BT-549 > 100 µM | NCI-H226 > 100 µM | SF-295 > 100 µM | DU-145 > 100 µM | U-251 > 100 µM | UACC-257 > 100 µM | MDA-MB-435 > 100 µM | OVCAR-8 > 100 µM | HT-29 > 100 µM | CCRF-CEM > 100 µM | SNB-19 > 100 µM | LOX IMVI > 100 µM
> 100 µM: HCT-15

CCN(CC)CCNc1nc(N)c(C#N)c(C#N)c1C#N
> 10 µM: HCT-15
inactive: UACC-62 > 10 µM | COLO 205 > 10 µM | OVCAR-4 > 10 µM | SNB-75 > 10 µM | SK-MEL-5 > 10 µM | BT-549 > 10 µM | NCI-H226 > 10 µM | SF-295 > 10 µM | DU-145 > 10 µM | U-251 > 10 µM | UACC-257 > 10 µM | MDA-MB-435 > 10 µM | OVCAR-8 > 10 µM | HT-29 > 10 µM | CCRF-CEM > 10 µM | SNB-19 > 10 µM | LOX IMVI > 10 µM

COC(=O)Nc1nc2cc(NC(=O)c3ccc(I)cc3)ccc2[nH]1
inactive: UACC-62 > 100 µM | COLO 205 > 100 µM | OVCAR-4 > 100 µM | SNB-75 96.8 µM | SK-MEL-5 > 100 µM | BT-549 > 100 µM | NCI-H226 > 100 µM | SF-295 > 100 µM | DU-145 > 100 µM | U-251 > 100 µM | UACC-257 > 100 µM | MDA-MB-435 > 100 µM | OVCAR-8 > 100 µM | HT-29 > 100 µM | CCRF-CEM > 100 µM | SNB-19 > 100 µM | LOX IMVI > 100 µM
> 100 µM: HCT-15

CCN(CC)CCOCC1CCCN2CCCCC12 (centres undefined)
> 100 µM: HCT-15
inactive: UACC-62 > 100 µM | COLO 205 > 100 µM | OVCAR-4 > 100 µM | SNB-75 > 100 µM | SK-MEL-5 > 100 µM | BT-549 > 100 µM | NCI-H226 > 100 µM | SF-295 > 100 µM | DU-145 > 100 µM | U-251 > 100 µM | UACC-257 > 100 µM | MDA-MB-435 > 100 µM | OVCAR-8 > 100 µM | HT-29 > 100 µM | CCRF-CEM > 100 µM | SNB-19 > 100 µM | LOX IMVI > 100 µM

O=C(C1OC1c1cccc([N+](=O)[O-])c1)C12CC3CC(CC(C3)C1)C2 (centres undefined)
inactive: UACC-62 3.74 µM | COLO 205 9.89 µM | OVCAR-4 4.27 µM | SNB-75 6.78 µM | SK-MEL-5 10.5 µM | BT-549 3.09 µM | NCI-H226 10.5 µM | SF-295 6.11 µM | DU-145 13.8 µM | U-251 2.88 µM | UACC-257 11.7 µM | MDA-MB-435 3.52 µM | OVCAR-8 2.25 µM | HT-29 3.39 µM | CCRF-CEM 2.89 µM | SNB-19 8.13 µM | LOX IMVI 1.72 µM
4.3 µM: HCT-15

COc1ccccc1C(=O)OCC1CCCN2CCCCC12 (centres undefined)
36.6 µM: HCT-15
inactive: UACC-62 31.7 µM | COLO 205 21.1 µM | OVCAR-4 83 µM | SNB-75 20.6 µM | SK-MEL-5 34.4 µM | BT-549 17.7 µM | NCI-H226 54.8 µM | SF-295 26.3 µM | DU-145 > 100 µM | U-251 26 µM | UACC-257 31 µM | MDA-MB-435 64.3 µM | OVCAR-8 21 µM | HT-29 16.6 µM | CCRF-CEM 18.6 µM | SNB-19 35.9 µM | LOX IMVI 17.1 µM

COc1cc(/C=C2\CC3C4CC[C@H]5C[C@@H](O)CC[C@]5(C)C4CC[C@]3(C)\C2=N\O)cc(OC)c1OC (some centres undefined)
inactive: UACC-62 14.3 µM | COLO 205 5.94 µM | OVCAR-4 5.74 µM | SNB-75 13.4 µM | SK-MEL-5 5.21 µM | BT-549 14.9 µM | NCI-H226 10.8 µM | SF-295 3.97 µM | DU-145 13.1 µM | U-251 10.6 µM | UACC-257 10.7 µM | MDA-MB-435 7.41 µM | OVCAR-8 17.3 µM | HT-29 7.36 µM | CCRF-CEM 6.47 µM | SNB-19 29.7 µM | LOX IMVI 11.5 µM
9.48 µM: HCT-15

C[C@]12CC[C@@H]3c4ccc(OS(N)(=O)=O)cc4CC[C@H]3[C@@H]1CCC2=O [EMATE]
38 µM: HCT-15
inactive: UACC-62 37.6 µM | COLO 205 38.7 µM | OVCAR-4 57.7 µM | SNB-75 42.4 µM | SK-MEL-5 13.5 µM | BT-549 45 µM | NCI-H226 49.3 µM | SF-295 36.4 µM | DU-145 42.7 µM | U-251 46.2 µM | UACC-257 32.4 µM | MDA-MB-435 39.4 µM | OVCAR-8 53 µM | HT-29 30.1 µM | CCRF-CEM 39 µM | SNB-19 73.3 µM | LOX IMVI 75.9 µM
